According to patent US12534700B2, “Beneficial microbes for delivery of effector peptides or proteins and use thereof” (priority 2016, dated 2026):

What was measured:
tobacco leaves [1] = settings: peptides described in prior applications; cited from earlier work
tobacco leaves [2] = test: Hypersensitive response test of purified Fresno-p5-21 infused into tobacco leaves; assay type: in vivo; settings: after 2 days
Procedure: The production and purification procedure of Examples 4 and 5 were scaled up to 1 L to produce a quantity of protein appropriate for hypersensitive response elicitation in tobacco leaves.
Briefly, 1 L of LB culture media was supplemented with 10 ug/ml Kanamycin and cells were grown as in Example 3 for 2 days in a baffled flask. Cells were harvested at 6000 g for 20 minutes at 4° C. Culture supernatant was removed from the cells and the cells were resuspended in 20 ml of Bugbuster Protein Extraction Reagent supplemented with 50 ug/ml lysozyme. The sample was gently rocked at room temperature for 30 minutes and then frozen on liquid nitrogen and stored at −80° C.
The sample was thawed on ice and a 1/50 volume of 500 mM imidazole was added for a final concentration of 10 mM imidazole. 8 ml of the sample was mixed with 2 ml of settled Ni-NTA agarose resin (5-Prime) end-over-end for 2 hours at 4° C. The column was then settled for 20 minutes and allowed to flow by gravity. The flowthrough was collected. The resin was washed with 5 column volumes of 50 mM sodium phosphate, 15 mM imidazole, 200 mM NaCl. Finally, the protein was eluted with 250 mM imidazole, pH 7.5. […] The protein concentration was quantified by UV/Vis spectroscopy using a Nanodrop 2000 (Thermo Fisher Scientific, Waltham, MA, USA). […]

[3] = Confirmation of soluble protein in bacterial cell lysates; assay type: physicochemical; settings: B. subtilis lysate, Bugbuster plus lysozyme, 20,000 g for 10 minutes at 4° C.
Procedure: Fluorescent colonies from Example 3 were inoculated into 5 ml cultures of LB medium supplemented with 10 ug/ml Kanamycin and grown for 2 days with 170 rpm shaking at 37° C. Cells were harvested by centrifugation (5000 g for 15 minutes at 4° C.). The culture was decanted away from the cell pellet. The cell pellets were resuspended in 1 ml each of Bugbuster Protein Extraction Reagent (EMD Millipore, Billerica, MA, USA) supplemented with 200 ug/ml of lysozyme. Lysis was allowed to proceed for 20 minutes at room temperature (20° C.). The lysates were centrifuged at 20,000 g for 10 minutes at 4° C. to separate soluble from insoluble proteins.

| Molecule | induction of a hypersensitive response (tobacco leaves [1]) | hypersensitive response (lesions typical of HR) (tobacco leaves [2]; 1× concentration (about 100 ug/ml protein)) | hypersensitive response (lesions typical of HR) (tobacco leaves [2]; 2× dilution) | solubility of recombinant protein (colour of lysate supernatant) [3] |
| --- | --- | --- | --- | --- |
| SAGSEQQLDLLLMFIMMMLQQ [P5] | capable of inducing a hypersensitive response |  |  |  |
| SAGSEQQLDQLLLMFIMMMLQQ [P5a] | capable of inducing a hypersensitive response |  |  |  |
| SEEEEQLDOLLLAFIAAALQQ (SEEEEQLDQLLLAFIAAALQQ; P5-25) | does not |  |  |  |
| SEEQLELLLAFIAAALQQEE [P5-21] | capable of inducing a hypersensitive response |  |  |  |
| Fresno-P5-21: Red fluorescent protein Fresno fused at C-terminus to harpin peptide P5-21 and 6×His tag, SEQ ID NO: 13 (protein) MNSLIKENMHMKLYMEGTVNNHHFKCTSEGEGKPYEGTQTMRIKVVEGGPLPFAFDILATSFMYGSRTFIKYPKGIPDFFKQSFPEGFTWERVTRYEDGGVVTATQDTSLEDGCLVYHVQVRGVNFPSNGPVMQKKTLGWEPNTEMLYPADGGLEGRSDMALKLVGGGHLSCSFVTTYRSKKTVGNIKMPGIHAVDHRLVRIKEADKETYVEQHEVAVAKFAGLGGGMDELYKSEEQLELLLAFIAAALQQEESRHHHHHH |  | caused lesions | caused lesions | soluble |
